From patent US10716788B2, “Methods for treating MS using pyrimidine and pyridine compounds with BTK inhibitory activity” (Merck Patent GmbH, priority 2015, dated 2020)

What was measured:
[1] = tested on: PLP139-151 induced EAE in female SJL mice; experiment: PLP139-151 induced EAE in SJL mice (relapsing remitting mouse model of MS); type: in vivo; conditions: for relapse activity / relapses: FIG. 2 / FIG. 10
[2] = tested on: RA models; conditions: 3 mg/kg PO; cited from earlier work
[3] = prophylactic treatment from Day 0 post-induction, 0.3, 1.0, 3 mg/kg PO QD, FIG. 1 / FIG. 9
[4] = prophylactic treatment from Day 0 post-induction, 0.3, 1.0, 3 mg/kg PO QD
[5] = therapeutic dosing from Day 9 post-induction, 1.0, 3, 10 mg/kg PO QD, FIG. 15

| Compound | number of relapses ([1]; dosing from Day 7 post-induction (before onset of EAE), 1.0 and 10 mg/kg PO QD, FIG. 21) | disease severity (clinical score) [1, 3] | relapse activity / relapses [1, 4] | incidence of disease ([1]; prophylactic treatment from Day 0 post-induction, 0.3, 1.0, 3 mg/kg PO QD, FIG. 10) | disease severity (clinical score) ([1]; semi-therapeutic dosing from Day 7 post-induction (before onset of EAE), 1.0 and 10 mg/kg PO QD, FIG. 20) | disease severity (clinical score) ([1]; therapeutic dosing from Day 9 post-induction, 1.0, 3, 10 mg/kg PO QD, FIG. 14) | relapses [1, 5] | time to first relapse [1, 5] | disease severity (clinical score) ([1]; therapeutic dosing from Day 17 post-induction, 1.0 and 10 mg/kg PO QD, FIG. 18) | number of relapses ([1]; therapeutic dosing from Day 17 post-induction, 1.0 and 10 mg/kg PO QD, FIG. 19) | efficacy on RA models [2] | disease onset ([1]; prophylactic treatment from Day 0 post-induction, 0.3, 1.0, 3 mg/kg PO QD, FIG. 1) | disease severity (clinical score) ([1]; therapeutic treatment, start at remission, 1, 3, 10 mg/kg PO QD, FIG. 3) | relapse activity ([1]; therapeutic treatment, start at remission, 1, 3, 10 mg/kg PO QD, FIG. 4) |
| --- | --- | --- | --- | --- | --- | --- | --- | --- | --- | --- | --- | --- | --- | --- |
| C=CC(=O)N1CCC(F)(CNc2ncnc(N)c2-c2ccc(Oc3ccccc3)cc2)CC1 [Compound (2), 1-(4-(((6-amino-5-(4-phenoxyphenyl)pyrimidin-4-yl)amino)methyl)-4-fluoropiperidin-1-yl)prop-2-en-1-one] | reduced the number of relapses | significantly decreases disease severity | decreased | decreased incidence of disease | reduced disease severity | reduced disease severity | decreased relapses | prolonged time to first relapse | reduced disease severity | reduced the number of relapses | efficacious |  |  |  |
| C=CC(=O)N1CCC(CNc2ncnc(N)c2-c2ccc(Oc3ccccc3)cc2)CC1 [Compound (1), 1-(4-(((6-amino-5-(4-phenoxyphenyl)pyrimidin-4-yl)amino)methyl)piperidin-1-yl)prop-2-en-1-one] |  | reduced disease severity | reduced relapse activity |  |  |  |  |  |  |  |  | delayed onset | reduced disease severity | reduced relapse activity |
